Results reported in US20090311344A1, “Dosing Regimen” (priority 2008, published 2009).
Entries after “also recorded” stand apart in the source; their conditions may differ.

Experiments:
platelet count = experiment: Multiple dose study in cancer subjects receiving platinum-based chemotherapy: platelet counts; type: in vivo, human; details: for Maximum Platelet Counts, Geometric Mean: in 10^9/L (unit assumed)
Description: A total of 7 subjects were excluded from the preliminary statistical analysis of Day 42 platelet count data and 9 subjects were excluded from the preliminary statistical analysis of Day 42 hemoglobin data due to either incorrect randomization, platelet transfusion, not administered the 2nd dose of study medication, or lost to follow-up.

[1] = tested on: platelets, reticulocytes, hematocrit; experiment: CBC analysis and reticulocyte counts in HT-29 tumor-bearing mice (Groups 6-9); type: in vivo, athymic nude mice
Description: Five groups (n=10) of female athymic nude mice (Harlan) bearing established (˜100 mm^3) HT-29 human colon carcinomas on Day 1. Groups 6-9 (n=20) were included for blood sampling and received the same treatment as Groups 1-4, respectively. Treatment effects on the growth of tumors were evaluated by tumor growth delay (TGD), which is the difference between median time to endpoint (TTE) tumor size in a treatment group compared to a control group. […]
Group 1 mice (n=10) were untreated tumor growth controls. Group 2 mice (n=10) received 60 mg/kg carboplatin administered intraperitoneally (i.p.) on Days 1, 2, 12, and 13. Group 3 mice (n=10) received 0.2 mg/kg of the TPO mimetic peptide compound administered intravenously (i.v.) via tail vein on Days 2 and 13. Groups 4 and 5 received the combination of carboplatin (60 mg/kg i.p. on Days 1, 2, 12, and 13) and 0.2 mg/kg of the TPO mimetic peptide compound on Days 2, 13 and Days 2, 13, 23, respectively, administered intravenously (i.v.) one hour after carboplatin dosing. Groups 6-9 (n=20 each) were included for blood sampling and received the same treatments as Groups 1-4, respectively. For all groups, each dose of drug was given in a volume of 0.2 mL per 20 g of body weight (10 mL/kg), and was scaled to the body weight of each animal.
[…] Blood was collected into EDTA tubes, and complete blood counts (CBC) with differential were determined using a Cell-Dyn® 3700 System (Abbott Diagnostics) for automated hematology analyses. Reticulocyte values were determined. In addition, for Groups 1-5, five animals per group were euthanized at or just after endpoint by terminal cardiac puncture under CO2 anesthesia, and gross necropsies were performed. Blood samples were collected into EDTA tubes, and CBC with differential and reticulocyte values were performed as previously described. All other animals in Groups 1-5 were euthanized at endpoint without sampling.

Substance: Methoxypolyethyleneglycol20000-propionyl-L-Isoleucyl-L-Glutamyl-Glycyl-L-Prolyl-L-Threonyl-L-Leucyl-L-Arginyl-L-Glutaminyl-L-2-Naphthylalanyl-L-Leucyl-L-Alanyl-L-Alanyl-L-Arginyl-Sarcosyl-Ne-(methoxypolyethyleneglycol20000-propionyl-L-Isoleucyl-L-Glutamyl-Glycyl-L-Prolyl-L-Threonyl-L-Leucyl-L-Arginyl-L-Glutaminyl-L-2-Naphthylalanyl-L-Leucyl-L-Alanyl-L-Alanyl-L-Arginyl-Sarcosyl-)-Lysinamide [TPO mimetic peptide compound]
- course of platelets (platelet count; 1.5 μg/kg dose): continued to decline up to Day 15
- platelets as compared to the placebo subjects (platelet count; 1.5 μg/kg dose): no apparent difference
- day of mean peak platelets (platelet count; 3.0 μg/kg dose): 15 days
- subjects with platelet increase of more than 3 times the baseline (≧3-fold) (platelet count; 1.5 and 2.25 μg/kg dose): no subjects; also recorded: none of the subjects
- day of peak platelets (platelet count; 2.25 and 1.5 μg/kg doses): 21 days
- platelet nadir and peak platelet counts relative to placebo (platelet count; 2.25 and 3 μg/kg dose): approximately 2 fold
- day of mean platelet nadir (platelet count; 2.25 and 3 μg/kg dose groups): 10 days
- platelet count as compared with placebo (platelet count; 2.25 and 3 μg/kg doses): reduction in chemotherapy-induced decline in platelets and faster recovery relative to placebo; also recorded: increased platelet count
- Maximum Platelet Counts, GMR (Active/Placebo) (platelet count; Across, 1.5 μg/kg): 1.0
- Minimum Platelet Counts, GMR (Active/Placebo) (platelet count; Across, 1.5 μg/kg): 0.6
- Minimum Platelet Counts, Geometric Mean (platelet count; Across, 1.5 μg/kg): 33.99
- Maximum Platelet Counts, Geometric Mean (platelet count; Across, 1.5 μg/kg): 371.53
- Maximum Platelet Counts, GMR (Active/Placebo) (platelet count; Across, 2.25 μg/kg): 1.6
- Minimum Platelet Counts, GMR (Active/Placebo) (platelet count; Across, 2.25 μg/kg): 2.7
- Minimum Platelet Counts, Geometric Mean (platelet count; Across, 2.25 μg/kg): 163.71
- Maximum Platelet Counts, Geometric Mean (platelet count; Across, 2.25 μg/kg): 570.39
- Maximum Platelet Counts, GMR (Active/Placebo) (platelet count; Across, 3.0 μg/kg): 1.8
- Minimum Platelet Counts, GMR (Active/Placebo) (platelet count; Across, 3.0 μg/kg): 2.0
- Minimum Platelet Counts, Geometric Mean (platelet count; Across, 3.0 μg/kg): 121.61
- Maximum Platelet Counts, Geometric Mean (platelet count; Across, 3.0 μg/kg): 633.09
- Maximum Platelet Counts, GMR (Active/Placebo) (platelet count; Cycle 1, 1.5 μg/kg): 1.1
- Minimum Platelet Counts, GMR (Active/Placebo) (platelet count; Cycle 1, 1.5 μg/kg): 0.5
- Minimum Platelet Counts, Geometric Mean (platelet count; Cycle 1, 1.5 μg/kg): 47.01
- Maximum Platelet Counts, Geometric Mean (platelet count; Cycle 1, 1.5 μg/kg): 331.25
- Maximum Platelet Counts, GMR (Active/Placebo) (platelet count; Cycle 1, 2.25 μg/kg): 1.8
- Minimum Platelet Counts, GMR (Active/Placebo) (platelet count; Cycle 1, 2.25 μg/kg): 2.3
- Minimum Platelet Counts, Geometric Mean (platelet count; Cycle 1, 2.25 μg/kg): 213.46
- Maximum Platelet Counts, Geometric Mean (platelet count; Cycle 1, 2.25 μg/kg): 557.78
- Maximum Platelet Counts, GMR (Active/Placebo) (platelet count; Cycle 1, 3.0 μg/kg): 2.1
- Minimum Platelet Counts, GMR (Active/Placebo) (platelet count; Cycle 1, 3.0 μg/kg): 2.0
- Minimum Platelet Counts, Geometric Mean (platelet count; Cycle 1, 3.0 μg/kg): 191.17
- Maximum Platelet Counts, Geometric Mean (platelet count; Cycle 1, 3.0 μg/kg): 641.56
- Maximum Platelet Counts, GMR (Active/Placebo) (platelet count; Cycle 2, 1.5 μg/kg): 1.0
- Minimum Platelet Counts, GMR (Active/Placebo) (platelet count; Cycle 2, 1.5 μg/kg): 1.0
- Minimum Platelet Counts, Geometric Mean (platelet count; Cycle 2, 1.5 μg/kg): 75.10
- Maximum Platelet Counts, Geometric Mean (platelet count; Cycle 2, 1.5 μg/kg): 290.55
- Maximum Platelet Counts, GMR (Active/Placebo) (platelet count; Cycle 2, 2.25 μg/kg): 1.4
- Minimum Platelet Counts, GMR (Active/Placebo) (platelet count; Cycle 2, 2.25 μg/kg): 2.2
- Minimum Platelet Counts, Geometric Mean (platelet count; Cycle 2, 2.25 μg/kg): 175.08
- Maximum Platelet Counts, Geometric Mean (platelet count; Cycle 2, 2.25 μg/kg): 397.37
- Maximum Platelet Counts, GMR (Active/Placebo) (platelet count; Cycle 2, 3.0 μg/kg): 1.4
- Minimum Platelet Counts, GMR (Active/Placebo) (platelet count; Cycle 2, 3.0 μg/kg): 2.2
- Minimum Platelet Counts, Geometric Mean (platelet count; Cycle 2, 3.0 μg/kg): 170.16
- Maximum Platelet Counts, Geometric Mean (platelet count; Cycle 2, 3.0 μg/kg): 401.20
- platelet elevations in the second cycle (platelet count; all subjects): below 3 times the baseline
- day of maximum effect on platelet count after administration (platelet count; human, in vivo): 15 days
- increase in platelet count relative to baseline (platelet count; second cycle, 3.0 μg/kg dose): approximately 2 fold
- mean reticulocyte values compared to Group 6 controls ([1]; Group 8, all time points): slightly higher
- mean hematocrit (HCT) values compared to untreated mice (Group 6) ([1]; Groups 7-9): similar
- mean platelet counts compared to untreated Group 6 controls ([1]; Groups 7-9, regimens as Groups 2-4, Days 10, 13, 21, and 23): higher mean platelet counts at all four time points
